{
  "source": "patent US20230233584A1",
  "about": "“EXTENDED RELEASE 5-HT RECEPTOR AGONISTS FOR NEUROLOGICAL CONDITIONS” (Diamond Therapeutics Inc., priority 2020, published 2023)",
  "key": {"[1]": {"experiment": "Psilocybin and psilocin plasma pharmacokinetics after s.c. psilocybin", "format": "in vivo, rats", "settings": "for Cmax / concentration at 0.25 h / concentration at 0.5 h / concentration at 0.75 h / concentration at 1 h / concentration at 2 h / concentration at 4 h / concentration at 6 h / Tmax / AUC(0-inf) / AUC(0-t) / half-life / MRT inf: rat, rats; for Cmax / concentration at 0.25 h / concentration at 0.5 h / concentration at 0.75 h / concentration at 1 h / concentration at 2 h / concentration at 4 h / concentration at 6 h: plasma; for AUC(0-inf): read-out: AUC0-inf, Mean; for AUC(0-t): read-out: AUC0-tlast, Mean; for half-life: read-out: Apparent t1/2, Mean (converted); for MRT inf: read-out: MRT0-inf, Mean", "protocol": "Psilocybin doses of 0.05, 0.1, 1, 10 mg/kg were used to evaluate psilocybin and psilocin PK in rats. For the doses of psilocybin that positively effect behaviors in the low performers in the PR and 5CSRTT, e.g., 0.05-0.1 mg/kg, the corresponding Cm. of psilocin was ˜7±2 ng/ml at 30 minutes for 0.05 mg/kg, and at a dose of 0.1 mg/kg, the Cm. of psilocin was determined to be ˜12±3 ng/ml at 30 minutes (FIG. 5).\nDetails of the plasma concentration studies are shown in Tables 1-8 (psilocybin) and 9-16 (psilocin). Values in italics are below the lower level of quantitation (BLQ, <1 ng/mL) but were included in calculations. Values in bold and underlined are considered to be outliers and were omitted from calculations. Measured dosing solution concentrations were 0.0460, 0.0967, 0.948 and 9.65 mg/mL for 0.05, 0.1, 1 and 10 […]."}, "[2]": {"experiment": "Minipump infusion of psilocybin over 12 days: plasma/blood exposure", "format": "in vivo, rats", "protocol": "A dose of psilocybin, which is free from perceptual and behavioral side effects, was dosed in rats (N=24) continuously over a period of 12 days using an Alzet minipump implanted in rats of approximately 380-390 g body weight. The pump was primed to deliver psilocybin at 5 mg/kg/day pump concentration. The target plasma concentration was 10 ng/ml psilocin with actual plasma concentration 9.3+1.3 ng/ml over the 12 day study period.\nBlood was collected from rats on days 4, 8 and 12 to measure levels of psilocybin and psilocin in Group B rats. Blood was collected via saphenous bleed at a standard timepoint which will not interfere with 5-choice testing. Psilocin blood levels were in the range of 8-10 ng/ml over days 4-12, while psilocybin blood levels were in the range of 2-5 ng/ml over days 4-12 (FIG. 7A), corresponding to 10 ng/mL psilocin. […] The present observations recorded for psilocybin/psilocin are occurring at exposure levels of psilocin ˜10 ng/ml (e.g., FIG. 5), likely resulting in a low level of CNS 5-HT2A receptor occupancy, and which is insufficient to elicit cardinal signs of 5-HT2A receptor activation such as WDS/BMC in rats (e.g., FIG. 1B)."}, "[3]": {"settings": "subcutaneous, after psilocybin 0.05 mg/kg s.c."}, "[4]": {"settings": "subcutaneous, after psilocybin 0.1 mg/kg s.c."}, "[5]": {"settings": "subcutaneous, after psilocybin 1 mg/kg s.c."}, "[6]": {"settings": "subcutaneous, after psilocybin 10 mg/kg s.c."}, "[7]": {"settings": "sc, psilocin in plasma after psilocybin 0.05 mg/kg s.c."}, "[8]": {"settings": "sc, psilocin in plasma after psilocybin 0.1 mg/kg s.c."}, "[9]": {"settings": "sc, psilocin in plasma after psilocybin 1 mg/kg s.c."}, "[10]": {"settings": "sc, psilocin in plasma after psilocybin 10 mg/kg s.c."}},
  "note": "Like-named read-outs stand apart in the source and are kept apart here.",
  "data": [
    {"smiles": "CN(C)CCc1c[nH]c2cccc(O)c12", "note": "[psilocin, 4-hydroxy-N,N-dimethyltryptamine]", "values": [
      {"measurement": "Plasma [psilocin]", "setting": "[1]; Regimen 1, 0.05-0.1 mg/kg acute, increase in breakpoint under PR schedule (low performer subgroup)", "value": "~5 to 12", "unit": "ng/mL"},
      {"measurement": "Plasma [psilocin]", "setting": "[1]; Regimen 2, 0.05-0.1 mg/kg acute, improvement in attention and response speed in 5-choice test (low performer subgroup)", "value": "~5 to 12", "unit": "ng/mL"},
      {"measurement": "Plasma [psilocin]", "setting": "[1]; Regimen 3, 0.05-0.1 mg/kg acute, increase in PREM/PSV response in 10 s ITI 5-choice test (low impulsive subgroup)", "value": "~5 to 12", "unit": "ng/mL"},
      {"measurement": "Plasma [psilocin]", "setting": "[1]; Regimen 5, ≥0.3 mg/kg acute, induction of overt 5-HT2A behaviors of WDS/BMC", "value": "≥25", "unit": "ng/mL"},
      {"measurement": "Cmax", "setting": "[1]; sc, 0.05 mg/kg, psilocin in plasma after psilocybin 0.05 mg/kg s.c., read-out: Cmax, Mean", "value": 7.14, "unit": "ng/mL"},
      {"measurement": "Cmax", "setting": "[1]; sc, 0.05 mg/kg, psilocybin 0.05 mg/kg, after 30 mins, read-out: Cmax psilocin", "value": "~6", "unit": "ng/mL"},
      {"measurement": "Cmax", "setting": "[1]; sc, 0.1 mg/kg, psilocin in plasma after psilocybin 0.1 mg/kg s.c., read-out: Cmax, Mean", "value": 11.7, "unit": "ng/mL"},
      {"measurement": "Cmax", "setting": "[1]; sc, 1 mg/kg, psilocin in plasma after psilocybin 1 mg/kg s.c., read-out: Cmax, Mean", "value": 83.3, "unit": "ng/mL"},
      {"measurement": "Cmax", "setting": "[1]; sc, 10 mg/kg, psilocin in plasma after psilocybin 10 mg/kg s.c., read-out: Cmax, Mean", "value": 1110, "unit": "ng/mL"},
      {"measurement": "Cmax", "setting": "[1]; subcutaneous, 0.05 mg/kg, psilocybin 0.05 mg/kg, after 30 mins, read-out: Cmax psilocin", "value": "~7", "unit": "ng/mL"},
      {"measurement": "Cmax", "setting": "[1]; subcutaneous, 0.1 mg/kg, psilocybin 0.1 mg/kg, after 30 mins, read-out: Cmax psilocin", "value": "~12", "unit": "ng/mL"},
      {"measurement": "Cmax", "setting": "[1]; subcutaneous, 1 mg/kg, psilocybin 1 mg/kg, after 30 mins, read-out: Cmax psilocin", "value": "~83", "unit": "ng/mL"},
      {"measurement": "Cmax", "setting": "[1]; subcutaneous, 10 mg/kg, psilocybin 10 mg/kg, after 30 mins, read-out: Cmax psilocin", "value": "~1110", "unit": "ng/mL"},
      {"measurement": "concentration at 0.25 h", "setting": "[1]; [3]", "value": 3.76, "unit": "ng/mL"},
      {"measurement": "concentration at 0.5 h", "setting": "[1]; [3]", "value": 5.68, "unit": "ng/mL"},
      {"measurement": "concentration at 0.75 h", "setting": "[1]; [3]", "value": 3.11, "unit": "ng/mL"},
      {"measurement": "concentration at 1 h", "setting": "[1]; [3]", "value": 5.91, "unit": "ng/mL"},
      {"measurement": "concentration at 2 h", "setting": "[1]; [3]", "value": 2.23, "unit": "ng/mL"},
      {"measurement": "concentration at 4 h", "setting": "[1]; [3]", "value": 0.49, "unit": "ng/mL"},
      {"measurement": "concentration at 6 h", "setting": "[1]; [3]", "value": 0.136, "unit": "ng/mL"},
      {"measurement": "concentration at 0.25 h", "setting": "[1]; [4]", "value": 9.35, "unit": "ng/mL"},
      {"measurement": "concentration at 0.5 h", "setting": "[1]; [4]", "value": 12.3, "unit": "ng/mL"},
      {"measurement": "concentration at 0.75 h", "setting": "[1]; [4]", "value": 7.73, "unit": "ng/mL"},
      {"measurement": "concentration at 1 h", "setting": "[1]; [4]", "value": 5.7, "unit": "ng/mL"},
      {"measurement": "concentration at 2 h", "setting": "[1]; [4]", "value": 2.78, "unit": "ng/mL"},
      {"measurement": "concentration at 4 h", "setting": "[1]; [4]", "value": 0.535, "unit": "ng/mL"},
      {"measurement": "concentration at 6 h", "setting": "[1]; [4]", "value": 0.215, "unit": "ng/mL"},
      {"measurement": "concentration at 0.25 h", "setting": "[1]; [5]", "value": 74.5, "unit": "ng/mL"},
      {"measurement": "concentration at 0.5 h", "setting": "[1]; [5]", "value": 76.6, "unit": "ng/mL"},
      {"measurement": "concentration at 0.75 h", "setting": "[1]; [5]", "value": 70.3, "unit": "ng/mL"},
      {"measurement": "concentration at 1 h", "setting": "[1]; [5]", "value": 69.9, "unit": "ng/mL"},
      {"measurement": "concentration at 2 h", "setting": "[1]; [5]", "value": 29.7, "unit": "ng/mL"},
      {"measurement": "concentration at 4 h", "setting": "[1]; [5]", "value": 5.5, "unit": "ng/mL"},
      {"measurement": "concentration at 6 h", "setting": "[1]; [5]", "value": 1.34, "unit": "ng/mL"},
      {"measurement": "concentration at 0.25 h", "setting": "[1]; [6]", "value": 704, "unit": "ng/mL"},
      {"measurement": "concentration at 0.5 h", "setting": "[1]; [6]", "value": 898, "unit": "ng/mL"},
      {"measurement": "concentration at 0.75 h", "setting": "[1]; [6]", "value": 1080, "unit": "ng/mL"},
      {"measurement": "concentration at 1 h", "setting": "[1]; [6]", "value": 1070, "unit": "ng/mL"},
      {"measurement": "concentration at 2 h", "setting": "[1]; [6]", "value": 713, "unit": "ng/mL"},
      {"measurement": "concentration at 4 h", "setting": "[1]; [6]", "value": 269, "unit": "ng/mL"},
      {"measurement": "concentration at 6 h", "setting": "[1]; [6]", "value": 132, "unit": "ng/mL"},
      {"measurement": "Tmax", "setting": "[1]; [7]", "value": 36, "unit": "min"},
      {"measurement": "AUC(0-inf)", "setting": "[1]; [7]", "value": 10.3, "unit": "ng·h/mL"},
      {"measurement": "AUC(0-t)", "setting": "[1]; [7]", "value": 10.1, "unit": "ng·h/mL"},
      {"measurement": "half-life", "setting": "[1]; [7]", "value": 60, "unit": "min"},
      {"measurement": "MRT inf", "setting": "[1]; [7]", "value": 104, "unit": "min"},
      {"measurement": "Tmax", "setting": "[1]; [8]", "value": 32.2, "unit": "min"},
      {"measurement": "AUC(0-inf)", "setting": "[1]; [8]", "value": 15.7, "unit": "ng·h/mL"},
      {"measurement": "AUC(0-t)", "setting": "[1]; [8]", "value": 12.5, "unit": "ng·h/mL"},
      {"measurement": "half-life", "setting": "[1]; [8]", "value": 55.1, "unit": "min"},
      {"measurement": "MRT inf", "setting": "[1]; [8]", "value": 85.2, "unit": "min"},
      {"measurement": "Tmax", "setting": "[1]; [9]", "value": 34.3, "unit": "min"},
      {"measurement": "AUC(0-inf)", "setting": "[1]; [9]", "value": 143, "unit": "ng·h/mL"},
      {"measurement": "AUC(0-t)", "setting": "[1]; [9]", "value": 117, "unit": "ng·h/mL"},
      {"measurement": "half-life", "setting": "[1]; [9]", "value": 52.7, "unit": "min"},
      {"measurement": "MRT inf", "setting": "[1]; [9]", "value": 91.8, "unit": "min"},
      {"measurement": "Tmax", "setting": "[1]; [10]", "value": 42.8, "unit": "min"},
      {"measurement": "AUC(0-inf)", "setting": "[1]; [10]", "value": 3380, "unit": "ng·h/mL"},
      {"measurement": "AUC(0-t)", "setting": "[1]; [10]", "value": 2280, "unit": "ng·h/mL"},
      {"measurement": "half-life", "setting": "[1]; [10]", "value": 99, "unit": "min"},
      {"measurement": "MRT inf", "setting": "[1]; [10]", "value": 160, "unit": "min"},
      {"measurement": "Plasma [psilocin]", "setting": "[2]; Regimen 4, mini-pump chronic, improvement in attention in 10 s ITI 5-choice test", "value": "~10", "unit": "ng/mL"},
      {"measurement": "actual plasma concentration of psilocin", "setting": "[2]; psilocybin minipump 5 mg/kg/day, over the 12 day study period, rats", "value": "9.3 ± 1.3", "unit": "ng/mL"},
      {"measurement": "Psilocin blood levels", "setting": "[2]; psilocybin minipump, days 4-12, rats", "value": "8 to 10", "unit": "ng/mL"}
    ]}
  ]
}
